We go through 26 compounds from patent US20090209536A1, “AMINOQUINAZOLINE CANNABINOID RECEPTOR MODULATORS FOR TREATMENT OF DISEASE” (KALYPSYS, INC., priority 2007, published 2009).

In assay [1] the target is T1, human cannabinoid receptor type 2 (Homo sapiens, UniProt P34972).
T1 construct: expressed in transfected cells; membrane preparation
Nature of the assay: Human CB2 Radioligand Binding Assay. The note with it: competition with [3H] CP-55,940; membranes from stably transfected CHO CB2 cells; read-out: CB2 Ligand Binding Asssay EC50. As to the method: 1. Human CB2 Radioligand Binding Assay
This receptor binding filtration assay measures the receptor-ligand interactions of compounds by measuring ability to compete with a radiolabeled control ligand. Reactions were performed in 96 deep-well plate (Costar 3961) with a final volume of 600 ul. Compounds were added to each well either in single point (10 uM final) or dose-response. Compounds were delivered in DMSO or further diluted in incubation buffer to a final assay DMSO concentration of 1%. Incubation buffer (50 mM Tris-HCl pH 7.4, 2.5 mM EGTA, 5 mM MgCl2, 5.0 mg/ml fatty acid free BSA) was added to each well. Following buffer addition, [^3H] CP-55,940 was added. Tritiated CP-55,940 (Perkin Elmer) was used at the Kd determined from prior saturation binding experiments conducted on each lot of membranes. Membrane preparations from stably transfected CHO CB2 cells were added and the reaction was incubated for 90 minutes at 30° C. Unifilter GF/C filtration plates (Perkin Elmer) were pre-wet with 0.05% polyethylenimine. Samples were transferred to Unifilter plates and separation of unbound radioligand was achieved using a vacuum manifold (Millipore). Following thorough washing with 5 ml/well ice-cold wash buffer (50 mM Tris-HCl pH 7.4, 2.5 mM EGTA, 5 mM MgCl2, 0.5 mg/ml fatty acid free BSA), filterplates were dried completely. Betaplate Scint Scintillation cocktail (25 ul, Perkin Elmer) was applied and plates were read using Microbeta Trilux (Wallac). Data analysis was performed in Spotfire. Activity of the positive control (100 nM CP-55,940) was set as 100% efficacy.
Stable recombinant Human CB2-CHO cell membranes were prepared as follows: Chinese Hamster Ovarian (CHO) cells stably expressing human cannabinoid receptor type 2 were grown to 90% confluence in 15×100 mm culture dishes under puromycin selection (5 ug/ml) Cells were harvested from culture flasks using a cell scraper, were washed once with cold phosphate-buffered saline (calcium and magnesium free) and pelleted by centrifugation at 400 g for 5 min at 4° C. Cell pellet was washed once with cold phosphate-buffered saline and centrifuged again at 400×g for 5 min at 4° C. The pellet was suspended in ice-cold lysis buffer (10 mM Tris-HCl, 0.1 mM EDTA, containing […], pH 7.5) and homogenized in a chilled 7 ml glass dounce homogenizer using 50 strokes. The homogenate was centrifuged at 400 g for 15 min at 4° C. The cloudy supernatant was collected and centrifuged at 41000 g for 30 min at 4° C. The resulting pellet was washed with ice-cold sucrose-free lysis buffer and centrifuged again at 41000 g for 30 min at 4° C. The membrane pellet was suspended in sucrose-free storage buffer (10 mm Tris-HCl, 0.1 mM EDTA, pH 7.5) to a concentration of 2-3 mg protein/ml. Aliquots were flash frozen in liquid nitrogen and stored at −80° C. Concentration was determined using Dc protein assay kit (Bio-Rad).

For assay [2], the target named is T2, human cannabinoid receptor type 1 (Homo sapiens, UniProt P21554).
T2 construct: purchased Perkin Elmer RBHCB1M; host or cells: HEK 293 EBNA cells
T2 sequence (P21554 whole entry): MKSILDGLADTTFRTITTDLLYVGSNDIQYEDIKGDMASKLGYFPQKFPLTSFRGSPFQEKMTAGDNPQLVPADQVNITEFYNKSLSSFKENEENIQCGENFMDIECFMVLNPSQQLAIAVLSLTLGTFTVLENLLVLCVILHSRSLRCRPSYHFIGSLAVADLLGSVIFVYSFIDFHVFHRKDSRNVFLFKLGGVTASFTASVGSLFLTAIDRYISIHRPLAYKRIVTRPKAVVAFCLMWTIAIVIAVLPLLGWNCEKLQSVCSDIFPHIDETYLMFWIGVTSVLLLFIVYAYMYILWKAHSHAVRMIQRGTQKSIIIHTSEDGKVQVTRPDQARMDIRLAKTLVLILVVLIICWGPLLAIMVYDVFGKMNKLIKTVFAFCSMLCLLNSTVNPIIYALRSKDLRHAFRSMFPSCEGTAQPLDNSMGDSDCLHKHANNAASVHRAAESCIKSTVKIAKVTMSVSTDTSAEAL
The assay is described as follows: Human CB1 Radioligand Binding Assay (basis of selectivity, CB2 vs. CB1). The note with it: CB1: HEK 293 EBNA cells expressing human CB1; CB2: CHO CB2 membranes. As to the method: 2. Human CB1 Radioligand Binding Assay
The incubation buffer was composed of 50 mM Tris-HCl pH 7.4, 2.5 mM EDTA, 5 mM MgCl2, 5.0 mg/ml fatty acid free BSA and the wash buffer was composed of 50 mM Tris-HCl pH 7.4, 2.5 mM EDTA, 5 mM MgCl2, 0.5 mg/ml fatty acid free BSA.

T1 sequence (P34972 whole entry): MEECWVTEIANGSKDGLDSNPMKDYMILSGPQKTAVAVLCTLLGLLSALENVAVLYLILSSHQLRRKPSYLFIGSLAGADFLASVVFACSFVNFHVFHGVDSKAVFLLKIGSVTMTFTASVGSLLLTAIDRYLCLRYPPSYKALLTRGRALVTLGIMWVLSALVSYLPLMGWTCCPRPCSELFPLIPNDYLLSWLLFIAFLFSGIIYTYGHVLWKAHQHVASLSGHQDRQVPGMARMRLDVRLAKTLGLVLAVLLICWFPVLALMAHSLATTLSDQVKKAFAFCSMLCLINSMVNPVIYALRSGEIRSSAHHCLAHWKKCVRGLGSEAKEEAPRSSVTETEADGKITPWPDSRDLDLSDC

Turning to `FC(F)(F)Oc1ccc2nc(-c3ccc(Cl)cc3)nc(N3CCCC3)c2c1` [Example 222, 2-(4-Chlorophenyl)-4-(pyrrolidin-1-yl)-6-(trifluoromethoxy)quinazoline], the EC50 in assay [1] was under 1000 nM. Further, the “Selectivity, CB2 vs. CB1” value in assay [2] is listed as “− (− indicates ≦ 10−fold)”.
For `O=S(=O)(NCc1nc(N2CCOCC2)c2ccccc2n1)c1ccc(Cl)cc1Cl` [Example 294, 2,4-Dichloro-N-((4-morpholinoquinazolin-2-yl)methyl)benzenesulfonamide], in that order: over 1000 nM and “− (− indicates ≦ 10−fold)”.
For `CN(c1ccc(C(C)(C)C)cc1)c1nc(-c2ccc(F)c(F)c2)nc2ccccc12` [Example 21, N-(4-tert-Butylphenyl)-2-(3,4-difluorophenyl)-N-methylquinazolin-4-amine], in that order: over 1000 nM and “− (− indicates ≦ 10−fold)”.
For `CC(=O)N1CCN(c2nc(-c3ccccc3Cl)nc3cccc(Cl)c23)CC1` [Example 265, 1-(4-(5-Chloro-2-(2-chlorophenyl)quinazolin-4-yl)piperazin-1-yl)ethanone], in that order: under 1000 nM and “+ (+ indicates > 10−fold)”.
Take `Clc1ccc2nc(-c3ccccc3Cl)nc(N3CCCC3)c2c1` [Example 205, 6-Chloro-2-(2-chlorophenyl)-4-(pyrrolidin-1-yl)quinazoline]: the half-maximal effective concentration (EC50) in assay [1] is under 1000 nM. For the same compound, the “Selectivity, CB2 vs. CB1” value in assay [2] is recorded as “+ (+ indicates > 10−fold)”.
Taken in the same sequence, the figures for `CCOC(=O)N1CCN(c2nc(-c3ccc(Cl)cc3)nc3ccc(OC(F)(F)F)cc23)CC1` [Example 223, Ethyl 4-(2-(4-chlorophenyl)-6-(trifluoromethoxy)quinazolin-4-yl)piperazine-1-carboxylate] were over 1000 nM and “− (− indicates ≦ 10−fold)”.
Taken in the same sequence, the figures for `Clc1ccccc1-c1nc(NCCCn2ccnc2)c2ccccc2n1` [Example 258, N-(3-(1H-Imidazol-1-yl)propyl)-2-(2-chlorophenyl)quinazolin-4-amine] were over 1000 nM and “− (− indicates ≦ 10−fold)”.
Taken in the same sequence, the figures for `CN1CCN(c2nc(-c3ccccc3F)nc3ccccc23)CC1` [Example 152, 2-(2-Fluorophenyl)-4-(4-methylpiperazin-1-yl)quinazoline] were under 1000 nM and “+ (+ indicates > 10−fold)”.
Turning to `CCCCN1CCN(c2nc(-c3ccccc3Cl)nc3ccccc23)CC1` [Example 107], the EC50 in assay [1] is over 1000 nM. Further, in assay [2], the “Selectivity, CB2 vs. CB1” value is “− (− indicates ≦ 10−fold)”.
On to `CCOC(=O)N1CCN(c2nc(-c3ccccc3Cl)nc3ccc(F)cc23)CC1` [Example 269, Ethyl 4-(2-(2-chlorophenyl)-6-fluoroquinazolin-4-yl)piperazine-1-carboxylate], for which the EC50 in assay [1] is under 1000 nM. In addition, the “Selectivity, CB2 vs. CB1” value in assay [2] was “+ (+ indicates > 10−fold)”.
Taken in the same sequence, the figures for `Clc1ccccc1-c1nc(N2CCCC2)c2c(Cl)cccc2n1` [Example 267, 5-Chloro-2-(2-chlorophenyl)-4-(pyrrolidin-1-yl)quinazoline] were under 1000 nM and “+ (+ indicates > 10−fold)”.
For `CN(CC1CC1)c1nc(-c2ccc(C(C)(C)C)cc2)nc2ccccc12` [Example 132, 2-(4-tert-Butylphenyl)quinazolin-4-yl cyclopropylmethyl-N-methylamine], in that order: under 1000 nM and “− (− indicates ≦ 10−fold)”.
For `CC1CCCCN1c1nc(-c2ccc(Cl)cc2)nc2ccccc12` (stereo not shown) [Example 124, 2-(4-Chlorophenyl)-4-(2-methylpiperidin-1-yl)quinazoline], the concentration giving a half-maximal response (EC50) in assay [1] was over 1000 nM. Also, in assay [2], the “Selectivity, CB2 vs. CB1” value is listed as “− (− indicates ≦ 10−fold)”.
For `CCN1CCN(c2nc(-c3ccccc3Cl)nc3ccccc23)CC1` [Example 105, 2-(2-chlorophenyl)-4-(4-ethylpiperazin-1-yl)quinazoline], in that order: under 1000 nM and “+ (+ indicates > 10−fold)”.
For `Clc1ccccc1-c1nc(N2CCCC2)c2cc(Br)ccc2n1` [Example 184, 6-Bromo-2-(2-chlorophenyl)-4-(pyrrolidin-1-yl)quinazoline], in that order: under 1000 nM and “− (− indicates ≦ 10−fold)”.
For `COc1ccc2nc(-c3ccccc3Cl)nc(N3CCSCC3)c2c1` [Example 172, 4-(2-(2-Chlorophenyl)-6-methoxyquinazolin-4-yl)thiomorpholine], in that order: under 1000 nM and “+ (+ indicates > 10−fold)”.
Take `CS(=O)(=O)N1CCN(c2nc(-c3ccccc3Cl)nc3ccccc23)CC1` [Example 86, 2-(2-Chlorophenyl)-4-(4-(methylsulfonyl)piperazin-1-yl)quinazoline]: in assay [1], the EC50 is under 1000 nM. In addition, in assay [2], the “Selectivity, CB2 vs. CB1” value is “− (− indicates ≦ 10−fold)”.
For `COC(=O)c1ccc2nc(-c3ccccc3Cl)nc(N3CCc4cc(OC)ccc43)c2c1` [Example 330, Methyl 2-(2-chlorophenyl)-4-(5-methoxyindolin-1-yl)quinazoline-6-carboxylate], in that order: over 1000 nM and “− (− indicates ≦ 10−fold)”.
Taken in the same sequence, the figures for `CC(=O)N1CCN(c2nc(-c3ccc(C(C)(C)C)cc3)nc3ccccc23)CC1` [Example 201, 1-(4-(2-(4-tert-Butylphenyl)quinazolin-4-yl)piperazin-1-yl)ethanone] were under 1000 nM and “+ (+ indicates > 10−fold)”.
Taken in the same sequence, the figures for `CCN(CC)C(=O)c1ccc2nc(-c3ccccc3Cl)nc(N3CCN(C)CC3)c2c1` [Example 311, 2-(2-Chlorophenyl)-N,N-diethyl-4-(4-methylpiperazin-1-yl)quinazoline-6-carboxamide] were under 1000 nM and “+ (+ indicates > 10−fold)”.
Regarding `CCCOC(=O)N1CCN(c2nc(-c3ccccc3Cl)nc3cccc(Cl)c23)CC1` [Example 231, Propyl 4-(5-chloro-2-(2-chlorophenyl)quinazolin-4-yl)piperazine-1-carboxylate], the half-maximal effective concentration (EC50) in assay [1] was over 1000 nM. Further, the “Selectivity, CB2 vs. CB1” value in assay [2] is listed as “− (− indicates ≦ 10−fold)”.
Take `CCCC(=O)N1CCN(c2nc(-c3ccccc3Cl)nc3cccc(Cl)c23)CC1` [Example 232, 1-(4-(5-Chloro-2-(2-chlorophenyl)quinazolin-4-yl)piperazin-1-yl)butan-1-one]: in assay [1], the EC50 is under 1000 nM. In addition, the “Selectivity, CB2 vs. CB1” value in assay [2] is listed as “+ (+ indicates > 10−fold)”.
For `CN1CCN(c2nc(CNS(=O)(=O)c3ccc4ccccc4c3)nc3ccccc23)CC1` [Example 6, N-((4-(4-methylpiperazin-1-yl)quinazolin-2-yl)methyl)naphthalene-2-sulfonamide], in that order: over 1000 nM and “+ (+ indicates > 10−fold)”.
Taken in the same sequence, the figures for `O=C(c1ncc[nH]1)N1CCN(c2nc(-c3ccccc3Cl)nc3ccccc23)CC1` [Example 262, (4-(2-(2-Chlorophenyl)quinazolin-4-yl)piperazin-1-yl)(1H-imidazol-2-yl)methanone] were over 1000 nM and “− (− indicates ≦ 10−fold)”.
Taken in the same sequence, the figures for `CCC(=O)N1CCN(c2nc(-c3ccccc3Cl)nc3ccccc23)CC1` [Example 98, 1-(4-(2-(2-Chlorophenyl)quinazolin-4-yl)piperazin-1-yl)propan-1-one] were under 1000 nM and “+ (+ indicates > 10−fold)”.
As for `COc1ccc2nc(C3CCCCC3)nc(N3CCN(C)CC3)c2c1` [Example 163, 2-Cyclohexyl-6-methoxy-4-(4-methylpiperazin-1-yl)quinazoline], the concentration giving a half-maximal response (EC50) in assay [1] is under 1000 nM. For the same compound, the “Selectivity, CB2 vs. CB1” value in assay [2] is listed as “− (− indicates ≦ 10−fold)”.
